Target: T1, Rat CYP11B2 (Rattus norvegicus, UniProt P30099)
T1 construct: made in house; host or cells: V79-4 cell line #305 (stably selected with geneticin and hygromycin); sonicated homogenate, 500 x g supernatant
T1 sequence (P30099 35-510): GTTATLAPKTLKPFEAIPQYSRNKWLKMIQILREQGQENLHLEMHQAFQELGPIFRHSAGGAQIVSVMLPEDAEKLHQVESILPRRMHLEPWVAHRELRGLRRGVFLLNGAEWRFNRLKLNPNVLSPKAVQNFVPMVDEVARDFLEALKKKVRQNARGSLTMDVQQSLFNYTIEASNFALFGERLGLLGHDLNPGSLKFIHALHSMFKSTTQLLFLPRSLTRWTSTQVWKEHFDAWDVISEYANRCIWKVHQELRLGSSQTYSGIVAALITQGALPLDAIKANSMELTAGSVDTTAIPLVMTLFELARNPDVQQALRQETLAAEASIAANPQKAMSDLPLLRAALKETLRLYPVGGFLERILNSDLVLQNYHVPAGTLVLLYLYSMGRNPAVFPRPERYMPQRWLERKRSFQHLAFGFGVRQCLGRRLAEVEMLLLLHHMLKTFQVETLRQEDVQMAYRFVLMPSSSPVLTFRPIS
Test: In vitro rat CYP11B2 assay
Format: biochemical
Details: V79-4 cell homogenate, 11-deoxycorticosterone to aldosterone, SPA
Procedure: Following 2 days of growth, cells are washed once with PBS, scraped and collected in PBS, and centrifuged at 1,300 rpm for 6 min. […] The sonication procedure is repeated 3 more times, with a 5 min incubation on ice between sonications. The sonicated material is then spun at 500×g for 4 min to remove unbroken cells. The supernatant is brought to a final glycerol concentration of 5%, flash-frozen in liquid nitrogen, and stored at −80° C.
The CYP11B2 assay is performed in 96-well U-bottom non-tissue-culture-treated plates. […] Plates are then centrifuged at 2,400 rpm for 6 min, and 100 μl of supernatant is removed for measurement of aldosterone content by scintillation proximity assay (SPA).
Measurement of aldosterone is performed using a 96-well plate format. […] Anti-mouse PVT SPA beads (50 μl) are then added to each well and incubated for 4 hr at room temperature prior to counting in a Microbeta plate counter. The amount of aldosterone in each sample is calculated by comparing with a standard curve generated using known quantities of the hormone.
Full concentration-response curves of an inhibitor are performed at least 3 times. The IC50 values are derived using a non-linear least squares curve-fitting program from DBS XLfit.

Row | IC50 | SMILES
1 | 1 nM | N#Cc1ccc(C2CCCCc3cncn32)c(Br)c1 (racemic) [3-bromo-4-(6,7,8,9-tetrahydro-5H-imidazo[1,5-a]azepin-5-yl)benzonitrile racemate, 3-bromo-4-(6,7,8,9-tetrahydro-5H-imidazo[1,5-a]azepin-5-yl)benzonitrile]
2 | 1 nM | N#Cc1ccc(C2CCCCc3cncn32)c(-c2ccc(F)cc2)c1 (single isomer, unassigned) [4′-fluoro-6-(6,7,8,9-tetrahydro-5H-imidazo[1,5-a]azepin-5-yl)biphenyl-3-carbonitrile]
3 | 5 nM | COc1ccc(CN(C)C(=O)C2(c3ccc(C#N)cc3Cl)CCc3cncn32)cc1 (stereo not drawn) [5-(2-chloro-4-cyanophenyl)-N-(4-methoxybenzyl)-N-methyl-6,7-dihydro-5H-pyrrolo[1,2-c]imidazole-5-carboxamide]

— patent publication US8609862B2, “Use of an adrenal hormone-modifying agent” (Novartis AG, priority 2010, dated 2013)
